The nature of data set [1]: Reverse-phase HPLC retention time as estimate of lipophilicity. The settings on record: indicator of lipophilicity. The format is physicochemical. From the text:
As mentioned before, albicidin 1 is a rather hydrophobic compound and improving its aqueous solubility is desirable. The lipophilicity of drug molecules is commonly characterized by the octanol/water partition coefficient (logP). An alternative approach relies on the correlation between lipophilicity and the retention time (Rt) on a reverse‐phase HPLC column.[31] This approach works well if structurally related compounds are compared as is the case for this SAR study. Rt was thus used to estimate the hydrophilicity of albicidin 1 and its derivatives 2–24 (Table 1).[32]

Another data set concerns E. coli. Nature of the data set: MIC against E. coli in presence of 50 % human serum. The format is cell-based. The settings on record: Escherichia coli; E. coli in presence of 50 % human serum; read-out: MICEc 50%HS.
The next data set concerns the target E. coli DNA gyrase (Escherichia coli, UniProt P0AES4). Nature of the data set: E. coli gyrase DNA cleavage assay. The format is biochemical. Details: key to Gyrase inhibition strong+ / weak −: + strong inhibition; − weak inhibition in comparison to compound 16. The settings on record: for Gyrase inhibition strong+ / weak −: qualitative DNA cleavage assay at 1 μM and 10 μM, in comparison to compound 16; for CC50: E. coli gyrase DNA cleavage, read-out: CC50 (concentration at half-maximum cleavage). On the procedure: The target activity of the synthesized derivatives was investigated using a DNA cleavage assay with purified and enzymatically active E. coli DNA gyrase[8] (see SI). In this assay, albicidin‐stabilized complexes of gyrase and plasmid DNA are trapped, and subsequently denatured and deproteinated to reveal DNA linearized by gyrase. […] For the best performing compounds, which were able to fully stabilize the cleavage complex at a concentration of 1 μM, the concentrations at half‐maximum cleavage (CC50) were determined (Figure 3).
1.2 Escherichia coli Gyrase Cleavage Inhibition Assay
E. coli gyrase cleavage assays were executed by setting up a master mix including 0.25 µg relaxed plasmid (pBR322) in 35 mM Tris-HCl (pH 7.5), 24 mM KCl, 4 mM MgCl2, 2 mM dithithreitol (DTT), 1.8 mM spermidine, 1 mM ATP, 6.5% (wt/vol) glycerol and 0.1 mg/ml bovine serum albumin per reaction.
Of this stock solution, 13.2 µL was aliquoted for each reaction into 1.5 mL Eppendorf tubes and supplemented with 0.3 µL of the appropriate compound dilution or DMSO with a […] DMSO concentration of 2% per reaction. The reactions were started with 1.5 µL of 50 nM (pre-screening) or 40 nM (IC50 determinations) wt E. coli gyrase in dilution buffer (50 mM Tris-HCl (pH 7.5), 100 mM KCl, 2 mM DTT, 1 mM EDTA, and 50% (wt/vol) glycerol) for a […] volume of 15 µL. Reactions were incubated at 37°C for 30 minutes before addition of 1.5 µL 0.2% (wt/vol) SDS and 0.75 µL proteinase K (0.2 mg/mL) and further incubation at 37°C for 30 minutes to trap cleavage complexes. Reactions were stopped with 15 µL chloroform:isoamyl alcohol (24: 1 v/v) and 15 µL of STEB (40% (wt/vol) sucrose, […] Tris-Cl pH 8, 10 mM EDTA, 0.5 mg/mL bromophenol blue). After brief vortexing and centrifugation at 2,300g for 5 min, 15 µL of the aqueous phase was loaded onto 1% (wt/vol) agarose in TAE (Tris-acetate […] and EDTA […]) gels supplemented with 10 µg/mL ethidium bromide.
The gels were run at 85 V for 2 hours.
DNA was visualized (602/50, UV Trans, auto optimal exposure) with a ChemiDoc MP (Bio-Rad Laboratories Inc., equipped with ImageLab Touch Software v2.0.0.27) and the percentage of cleaved DNA relative to the total amount of DNA per lane was determined with ImageJ software.[2] IC50 curves were generated in GraphPad Prism (v10.0.0) using the non-linear regression curve fit variable slope with four parameters and least squares regression.

Data set [2] deals with Salmonella typhimurium TA100. Nature of the data set: MIC determination (broth microdilution). The format is cell-based. The settings on record: Salmonella enterica, read-out: MIC S. typh. On the procedure: (§1) After completing the syntheses, the antibacterial activity of A‐variations 4–24 was assessed by determination of MIC values against a basic set of gram‐negative and gram‐positive bacteria (Table 1). The monocyclic derivatives 4–8 featuring a cyano‐, trifluoromethyl‐, methoxy‐ and fluoro‐ substituent in para‐position were very active against the gram–negative E. coli and S. typhimurium strains with MIC values in the same range as 3rd Gen albicidin 3 or ciprofloxacin which is the gold standard for gyrase inhibitors. […] These findings are in agreement with previous studies showing good activities for cyano, trifluoromethyl, methoxy and fluoro substituents in the para‐position of different aromatic rings in the building block A.[12, 13] The activity of the monocyclic derivatives 4–8 against the gram‐positive strains B. subtilis and M. luteus were similar but slightly less pronounced compared to the lead structure 3.
(§2) 1.1 Determination of Minimal Inhibitory Concentrations (MIC)
(§3) Minimal inhibitory concentration (MIC) against selected bacterial strains values were determined according to the ninth edition of the Approved Standard M07-A9.[1] 20 μL of cryo stocks of bacterial strains were suspended in 20 mL LB medium (Lysogeny broth: 10 g/L peptone, 5 g/L yeast extract, 5 g/L NaCl). Following incubation overnight at 37°C, 200 rpm, the test inoculum was adjusted by 0.5 McFarland Standard in cation adjusted Mueller-Hinton broth (BBLTM Mueller-Hinton Broth II, Becton, Dickinson and Company, New Jersey, USA) to approximately 1x10^6 CFU mL-1. 95 μL of the bacterial inoculum were applied per well of a 96-well plate. Albicidin and albicidin derivatives 3−24 were dissolved in DMSO (100%) to an initial concentration of 2560 μg/mL and serially diluted in DMSO (100%). Initial solution and serial dilutions of Ciprofloxacin were prepared in 0.1 N HCL, respectively. 5 μL of each antibiotic dilution were added to the microdilution tray to reach albicidin concentrations of 128 μg/mL to 0.016 μg/mL per well. One row of each well plate served as a growth control without antibiotic substances and another row of the microdilution tray served as sterility control (only MHB II - media). The antimicrobial effect of the solvent (DMSO) was tested by adding 5 μL DMSO to several wells. Purity check and cell titer control were performed according to International S tandard M07-A9 on Mueller-Hinton II Agar (Mueller Hinton II Broth, 15 g/L agar-agar). Both microdilution trays and agar plates were incubated at 30−37°C for 16 h and subsequently analyzed for growth inhibition by naked eye. The following primary panel of microorganisms were purchased from German Collection of Microorganisms and Cell Cultures (DSMZ):
(§4) Escherichia coli DSM 1116
(§5) Micrococcus luteus DSM 1790
(§6) Mycobacterium phlei DSM 750
(§7) Salmonella typhimurium TA100 was kindly provided by Prof. Dr. Vera Meyer (Technische Universität Berlin). […]
(§8) was purchased as part of the single gene knockout library of E. coli K12 BW25113 (Keio collection) from Horizon Discovery group plc (Cambridge, UK).
For orientation: Broth dilution looks for growth in wells or tubes with falling amounts of substance.

The test system of data set [3] is Micrococcus luteus DSM 1790. Nature of the data set: MIC determination (broth microdilution). The format is cell-based. The settings on record: DSM1790, read-out: MIC M. luteus. On the procedure:
as §1, §2, §3, §4, §5, §6, §7, §8

Data set [4] has as its system Mycobacterium phlei DSM 750. Nature of the data set: MIC determination (broth microdilution). The settings on record: Mycolicibacterium phlei, DSM750; read-out: MIC M. phlei. The format is cell-based. On the procedure:
as §1, §2, §3, §4, §5, §6, §7, §8

The test system of a further data set is E. coli DSM1116. Nature of the data set: MIC determination (broth microdilution). The format is cell-based. The settings on record: Escherichia coli, DSM1116; read-out: MIC E. coli DSM1116. On the procedure:
as §1, §2, §3, §4, §5, §6, §7, §8

The next data set has as its system E. coli BW25113. Nature of the data set: MIC determination (broth microdilution). The settings on record: Escherichia coli, BW25113; read-out: MIC E. coli BW25113. It is filed as cell-based. On the procedure: as §1, §2, §3, §4, §5, §6, §7, §8
The next data set deals with Bacillus subtilis DSM 10. Nature of the data set: MIC determination (broth microdilution). It is filed as cell-based. The settings on record: DSM10, read-out: MIC B. sub. On the procedure:
as §1, §2, §3, §4, §5, §6, §7, §8

A further data set concerns the target bacterial DNA gyrase. Also noted: method as in PMID 17074789. The settings on record: read-out: half maximum inhibitory concentration (IC50), DNA gyrase; cited from earlier work.

In brackets after ≈: the same amount, converted by molar mass.

E. coli DNA gyrase, sequence (P0AES4 whole entry): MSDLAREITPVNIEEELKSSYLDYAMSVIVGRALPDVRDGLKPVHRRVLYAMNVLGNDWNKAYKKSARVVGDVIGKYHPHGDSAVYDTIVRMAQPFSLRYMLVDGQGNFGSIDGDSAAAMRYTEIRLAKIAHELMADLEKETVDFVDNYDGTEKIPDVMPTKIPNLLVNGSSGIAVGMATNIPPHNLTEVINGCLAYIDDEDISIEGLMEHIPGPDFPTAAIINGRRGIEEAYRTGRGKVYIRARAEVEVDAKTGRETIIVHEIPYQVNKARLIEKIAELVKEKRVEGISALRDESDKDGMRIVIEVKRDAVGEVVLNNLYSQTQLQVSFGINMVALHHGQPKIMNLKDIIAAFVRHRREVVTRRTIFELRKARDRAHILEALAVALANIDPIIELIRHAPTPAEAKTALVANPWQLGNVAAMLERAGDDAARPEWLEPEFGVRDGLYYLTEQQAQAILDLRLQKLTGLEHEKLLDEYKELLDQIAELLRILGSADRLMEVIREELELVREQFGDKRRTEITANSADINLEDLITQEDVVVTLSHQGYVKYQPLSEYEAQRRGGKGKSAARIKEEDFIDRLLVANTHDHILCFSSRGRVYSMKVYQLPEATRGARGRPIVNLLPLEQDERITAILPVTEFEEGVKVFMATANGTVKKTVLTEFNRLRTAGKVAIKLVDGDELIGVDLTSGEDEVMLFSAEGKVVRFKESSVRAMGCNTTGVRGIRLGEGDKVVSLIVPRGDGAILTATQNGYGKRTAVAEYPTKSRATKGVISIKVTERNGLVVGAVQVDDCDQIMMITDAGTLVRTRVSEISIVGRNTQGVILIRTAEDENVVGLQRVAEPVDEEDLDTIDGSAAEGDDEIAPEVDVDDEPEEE

Take `COc1c(NC(=O)c2ccc(NC(=O)c3ccc(NC(=O)[C@H](Cc4c[nH]nn4)NC(=O)c4ccc(NC(=O)c5ccc(F)cn5)cc4)cn3)c(OC)c2O)ccc(C(=O)O)c1O` [compound 7]: the “Rt (retention time)” value in data set [1] is on record as 8.29 min. The MIC with E. coli was 4 µg/mL; in [2] it was at most 0.016 µg/mL; in [3], 0.125 µg/mL (≈ 0.147 µM); in [4] it was 2 µg/mL (≈ 2.36 µM); with E. coli DSM1116, 0.031 µg/mL (≈ 0.0365 µM); in the data set on E. coli BW25113, 0.031 µg/mL (≈ 0.0365 µM). The MIC in the data set on Bacillus subtilis DSM 10 came out at 0.125 µg/mL (≈ 0.147 µM). Further, on E. coli DNA gyrase, the “Gyrase inhibition strong+ / weak −” value was “+”.

Take `COc1c(NC(=O)c2ccc(NC(=O)c3ccc(NC(=O)[C@H](Cc4c[nH]nn4)NC(=O)c4ccc(NC(=O)c5ccc6cc(O)ccc6c5)cc4)cn3)c(OC)c2O)ccc(C(=O)O)c1O` [compound 10]: the “Rt (retention time)” value in data set [1] is 8.15 min. Moreover, the MIC in the data set on E. coli is 2 µg/mL; in [2], at most 0.016 µg/mL; in data set [3], 0.031 µg/mL (≈ 0.0346 µM); in data set [4] it was 1 µg/mL (≈ 1.12 µM); in the data set on E. coli DSM1116, 0.016 µg/mL (≈ 0.0179 µM); in the data set with E. coli BW25113, at most 0.016 µg/mL. Further, the MIC in the data set on Bacillus subtilis DSM 10 turned out to be 0.063 µg/mL (≈ 0.0703 µM). The CC50 at E. coli DNA gyrase stood at 78 nM. Further, the “Gyrase inhibition strong+ / weak −” value at E. coli DNA gyrase is on record as “+”.

In the case of `COc1c(NC(=O)c2ccc(NC(=O)c3ccc(NC(=O)[C@H](Cc4cn[nH]n4)NC(=O)c4ccc(NC(=O)/C(C)=C/c5ccc(O)cc5)cc4)cn3)c(OC)c2O)ccc(C(=O)O)c1O` [compound 3, reference compound], the “Rt (retention time)” value in [1] is recorded as 8.15 min. In addition, the MIC was determined as 0.5 µg/mL with E. coli; 0.016 µg/mL (≈ 0.0181 µM) in data set [2]; 0.031 µg/mL (≈ 0.035 µM) in data set [3]; 0.25 µg/mL (≈ 0.282 µM) in data set [4]; 0.016 µg/mL (≈ 0.0181 µM) with E. coli DSM1116; 0.016 µg/mL (≈ 0.0181 µM) with E. coli BW25113. Moreover, in the data set with Bacillus subtilis DSM 10, the MIC is 0.031 µg/mL (≈ 0.035 µM). The CC50 on E. coli DNA gyrase was 66 nM. Also, at E. coli DNA gyrase, the “Gyrase inhibition strong+ / weak −” value was “+”.

For the molecule `COc1c(NC(=O)c2ccc(NC(=O)c3ccc(NC(=O)[C@H](CC#N)NC(=O)c4ccc(NC(=O)/C(C)=C/c5ccc(O)cc5)cc4)cc3)c(OC)c2O)ccc(C(=O)O)c1O` [compound 1, albicidin], the IC50 on bacterial DNA gyrase is 40 nM.

Consider `COc1c(NC(=O)c2ccc(NC(=O)c3ccc(NC(=O)[C@H](Cc4c[nH]nn4)NC(=O)c4ccc(NC(=O)c5ccc([N+](=O)[O-])cn5)cc4)cn3)c(OC)c2O)ccc(C(=O)O)c1O` [compound 8], for which the “Rt (retention time)” value in data set [1] is 8.30 min. In addition, the MIC stood at 8 µg/mL in the data set with E. coli; 0.063 µg/mL (≈ 0.0719 µM) in data set [2]; 0.063 µg/mL (≈ 0.0719 µM) in [3]; 2 µg/mL (≈ 2.28 µM) in data set [4]; 0.063 µg/mL (≈ 0.0719 µM) with E. coli DSM1116; 0.125 µg/mL (≈ 0.143 µM) with E. coli BW25113. The MIC in the data set with Bacillus subtilis DSM 10 was 0.25 µg/mL (≈ 0.285 µM). In addition, the “Gyrase inhibition strong+ / weak −” value at E. coli DNA gyrase was “+”.

The record behind these values is paper PMC11979685, “Synthesis of Derivatives of the Antibiotic Albicidin: The N‐Terminal Fragment as Key to Control Potency and Resistance Mediated by the Binding Protein AlbA” (Chemistry (Weinheim an Der Bergstrasse, Germany), 2025).
